Results as given in PubChem BioAssay (NCI).
Values joined by “and” are separate entries in the source; they are usually repeats but may differ in a detail not shown here. Equal entries are not always repeated.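 The compound was tested at five concentrations on cells cultured in 96-well plates, with a 48-hour exposure period. The concentration for 50% growth inhibition is given as GI50. TGI marks complete inhibition of growth.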

How the values were obtained:
Assay in all cases: NCI-60 cell line screen, 48 h
[1] = test system: DLD-1 colon
[2] = test system: DMS 273 small cell lung
[3] = test system: RXF-631 renal
[4] = test system: LXFL 529 NSCLC
[5] = test system: SNB-78 CNS
[6] = test system: M19-MEL melanoma
[7] = test system: HOP-18 NSCLC
[8] = test system: MDA-N
[9] = test system: DMS 114 small cell lung

Row | Structure (SMILES) | TGI [1] [µM] | TGI [2] [µM] | TGI [3] [µM] | TGI [4] [µM] | TGI [5] [µM] | TGI [6] [µM] | TGI [7] [µM] | TGI [8] | TGI [9] [µM] | other results
1 | O=C(O)c1c2c(cc3c(=O)cc(-c4ccccc4)oc13)CCCC2 | > 100 | > 100 | > 100 | > 100 | > 100 | – | – | – | – | –
2 | CC[PH+](CC)CC.CC[PH+](CC)CC.[Au] | 18.9 | 38.3 | – | 6.33 | 53.1 | 31.9 | 22.1 | – | – | GI50 [1]: 5.52 µM; GI50 [2]: 17 µM; GI50 [6]: 4.06 µM; GI50 [7]: 8 µM; GI50 [4]: 2.31 µM; GI50 [5]: 6.82 µM
3 | CC(=O)OCC1OC(n2ncc(=O)[nH]c2=O)C(OC(C)=O)C1OC(C)=O (stereo not given) | – | – | – | – | – | – | – | > 100 µM | – | –
4 | CN1CCN(CCCN2c3ccccc3Sc3ccc(Cl)cc32)CC1 | – | – | – | – | – | – | – | 61.4 µM | – | GI50 [8]: 42.1 µM
5 | O=C1CC(CC(OCc2ccccc2)C(OCc2ccccc2)C(COCc2ccccc2)OCc2ccccc2)CC(=O)N1 (stereo not given) | – | – | – | – | – | – | – | > 100 µM and 27.7 µM | – | GI50 [8]: > 100 µM and 12.5 µM
6 | CC(C)=NNC(=S)NC12CC3CC(CC(C3)C1)C2 | – | > 100 | > 100 | > 100 | > 100 | > 100 | – | – | – | –
7 | Cc1ccc(C(=O)NCCN(C)C)c2nc3ccccc3cc12 | > 100 | 2 | 12 | > 100 | > 100 | > 100 | 9.89 | – | > 100 | –
8 | CC1(C)CCC(C)(C)c2cc(NC(=O)c3ccc(C(=O)O)cc3)ccc21 | – | – | – | – | – | – | – | > 100 µM | – | –
9 | O=C1C(=O)N(c2ccc(Cl)cc2)C(=O)C(=Nc2cccc3c(=O)[nH][nH]c(=O)c23)C1c1nc2ccccc2o1 (stereo not given) | > 100 | > 100 | > 100 | > 100 | > 100 | > 100 | > 100 | – | – | –
10 | Cc1ccc(S(=O)(=O)OCCOCCOCCOCCOCCOS(=O)(=O)c2ccc(C)cc2)cc1 | > 100 | > 100 | 82.2 | > 100 | > 100 | > 100 | > 100 | – | – | –
11 | O=[N+]([O-])c1oc2ccc3ccccc3c2c1CCO | – | – | – | – | – | – | – | 4.07 µM | – | –
12 | O=C(O)Cc1ccc(N=Nc2c(O)c(C(=O)O)cc3ccccc23)cc1 | – | – | – | – | – | – | – | > 100 µM | – | –
13 | OCC1CCCC1O (stereo not given) | – | – | – | – | – | – | – | > 100 µM | – | –
14 | CN(/N=C\c1ccnc2ccccc12)c1ccccc1 | 64.6 | 39.7 | – | 79.7 | > 100 | 54 | > 100 | – | 48.7 | –
15 | O=C(O)CN(c1ccc(F)cc1)S(=O)(=O)c1ccccc1 | > 100 | > 100 | > 100 | > 100 | – | > 100 | > 100 | – | – | –
16 | O=[N+]([O-])C=C1c2ccccc2-c2ccccc21 | 7.71 | – | – | 28.2 | 31.1 | – | – | – | – | –
17 | O=c1cccc2n1CC1CNC[C@H]2C1 | – | – | – | – | – | – | – | > 100 µM | – | –
18 | C=C1C(=O)C2=CC1CCC(=O)C1(C)CCC(OC(C)=O)C(C)(C)C1CC2O (stereo not given) | – | – | – | – | – | – | – | 4.41 µM | – | –
19 | COc1cc(O)c2c(c1)C(=O)C1=C(C2=O)C(O)C[C@@](C)(O)C1 (stereo not given in full) | 2.28 | 5.04 | – | 2.1 | 4.67 | 1.66 | – | – | 3.26 | –
20 | C=C1CC2(CCS(=O)(=O)c3ccccc32)OC1=O (stereo not given) | 25.9 | 30.5 | 43.4 | 15.9 | 33.6 | 37.2 | 14.7 | – | 14.2 | –
21 | Cc1ccc(Sc2ccccc2N)cc1 | – | > 100 | > 100 | 32.9 | > 100 | > 100 | > 100 | – | > 100 | –
22 | O=C(CSSCC(=O)Nc1ccc(Br)cc1)Nc1ccc(Br)cc1 | 35.9 | 30.8 | – | 31.2 | 32.5 | 34.2 | – | – | 28.2 | –
23 | CCOC(=O)CN(c1ccccc1)c1nc(=[N+](C)C)ss1 | > 100 | 33.8 | – | – | > 100 | 34 | > 100 | – | 27.7 | –
24 | N#CCc1nnc(N)o1 | > 100 | > 100 | > 100 | > 100 | > 100 | > 100 | – | – | – | –
25 | CN1C(=O)C2(c3ccccc31)C1CC3C(CO1)C1C2C3(CO)CN1C#N (stereo not given) | – | – | – | – | – | – | – | > 100 µM | – | –
26 | COc1cccc(C2SCc3nc4ccccc4n32)c1 (stereo not given) | > 100 | > 100 | – | – | > 100 | > 100 | > 100 | – | > 100 | –
27 | COC(=O)C1[C@H](c2ccc3c(c2)OCO3)OC(=O)[C@]1(C(=O)OC)C(=O)c1ccc(OC)c(OC)c1 (stereo not given in full) | 40.1 | 71.6 | – | > 100 | > 100 | > 100 | > 100 | – | – | –
28 | c1ccc2c(CNCCCCCCCCNCc3cccc4ccccc34)cccc2c1 | 4.07 | 3.68 | – | 3.22 | 4.45 | 3.12 | 18.5 | – | 3.48 | –
